How the values were obtained:
[1] = system: TFEB expression in cultured human airway epithelial cells (BEAS2B); assay: Induction of TFEB expression in human airway epithelial cell; format: cell-based; settings: 24 hours
Experimental: The effect of pemafibrate was examined with reference to a procedure described in a literature ([…], et al.: Autophagy (2019), 15(3): 510). That is, cultured human airway epithelial cells (BEAS2B) were cultured in a culture medium supplemented with 10 nM or 100 nM of pemafibrate for 24 hours, and were compared to a control (0 nM).

[2] = system: p21 expression in human-derived cultured airway epithelial cells (HBEC) with cigarette smoke extract; assay: Action on smoking stimulation-induced cell senescence (p21 expression); format: cell-based; settings: 24 hours
Experimental: The effect of pemafibrate was examined with reference to a procedure described in a literature (Saito N, et al.: J Immunol (2019), 202: 1428). That is, human-derived cultured airway epithelial cells (HBEC) were cultured in a culture medium supplemented with 10 nM to 100 nM of pemafibrate together with 1% cigarette smoke extract (CSE) for 24 hours, and were compared to a control (0 nM).

[3] = system: cigarette smoke-exposed COPD model; assay: Cigarette smoke-exposed COPD model; format: in vivo, C57BL/6J mice
Source text: The effect of pemafibrate was examined with reference to a procedure described in a literature ([…], et al.: Autophagy (2019), 15(3): 510)). That is, C57BL/6J mice were exposed to cigarette smoke with an exposure and inhalation system for small animals five times a week for 6 months. The mice were classified into a total of 4 groups as follows: the mice were classified into a normal diet group (Ctrl) and a 0.0003 w/w % pemafibrate mixed feed group (Pema), and the groups were each further classified into a room air group (RA) and a cigarette smoke exposure group (CS). First, a lung after the completion of the administration of pemafibrate was removed from the room air group (RA), and was evaluated for the expression of TFEB by being homogenized. […] Next, a bronchoalveolar lavage fluid was collected and evaluated for its cells. […] In addition, an alveolar diameter was measured and the degree of emphysema was evaluated.

SMILES: CC[C@@H](Oc1cccc(CN(CCCOc2ccc(OC)cc2)c2nc3ccccc3o2)c1)C(=O)O [pemafibrate, (R)-2-[3-[[N-(benzoxazol-2-yl)-N-3-(4-methoxyphenoxy)propyl]aminomethyl]phenoxy]butyric acid]
- expression of TFEB ([1]; 10 nM or 100 nM pemafibrate, vs control (0 nM), FIG. 1): increased in a manner dependent on the dose
- ratio of the expression amount of TFEB to the expression amount of ACTB ([1]; 10 nM or 100 nM, vs control, p<0.05): a significant difference was observed as compared to the control
- expression of p21 increased by CSE stimulation ([2]; 10 nM to 100 nM pemafibrate with 1% CSE, FIG. 2): suppressed by pemafibrate in a dose-dependent manner
- suppressing action on cell senescence ([2]; 1% CSE): had a suppressing action on cell senescence
- pemafibrate concentration giving significant difference in ratio of p21 to ACTB expression vs control ([2]; 1% CSE, p<0.05): ≥ 20 nM
- destruction of lung structure (alveolar diameter, degree of emphysema) ([3]; cigarette smoke exposure (CS) 6 months, 0.0003 w/w % mixed feed, FIG. 5 and 6): the destruction of a lung structure due to the cigarette smoke exposure (CS) was suppressed
- cell senescence due to cigarette smoke exposure ([3]; cigarette smoke exposure (CS) 6 months, 0.0003 w/w % mixed feed, FIG. 7): the cell senescence due to the cigarette smoke exposure (CS) was suppressed
- expression of TFEB in lung homogenate ([3]; room air group (RA), 0.0003 w/w % pemafibrate mixed feed, 6 months, FIG. 3): an increase in expression of TFEB was observed
